Results published in patent publication US10112918B2, “15-oxospiramilactone derivatives, preparation method and uses thereof” (Kunming Institute of Botany, The Chinese Academy of Sciences, priority 2013, dated 2018).
Read-outs that look alike come from different tables or passages of the source.

Legend:
Format in all cases: cell-based
[1] = tested on: MCF-7 (human breast cancer cells); experiment: MTT inhibition of tumor cell growth, MCF-7; details: Homo sapiens
Protocol: (§1) 1. Inoculating cells: the culture medium DMEM or RMPI1640 containing 10% fetal bovine serum was used to prepare a single cell suspension, and the cell suspension was inoculated to a 96-well plate at 5000-10000 cells per well (100 μl for each well); Adherent cells were inoculated and cultured for 12 h in advance. HL-60 (human promyelocytic leukemia cells), SMMC-7721 (human hepatoma cells), A-549 (Human lung adenocarcinoma cells), MCF-7 (human breast cancer cells), SW-480 (human colon cancer cells) were purchased from the Cell Bank of the Chinese Academy of Sciences, Shanghai.
(§2) 2. The solution of the compound to be tested (40 μM for primary screening; 5 concentrations were set for gradient re-screening for the compounds which achieve about 50% inhibition of tumor cell growth at 40 μM) was added, the final volume of each well was 200 μl, and triplicate wells were set for each test.
(§3) 3. Coloration: After culturing at 37° C. for 48 h, MTT solution (20 μl) was added to each well. After incubation for another 4 h, the culture was stopped. The supernatant in each well was pipetted and discarded, and 200 μl SDS solution (10%) was added to each well. Incubation was performed overnight (at 37° C.), to completely dissolve the crystal.
(§4) 4. Colorimetric assay: ELISA Reader (Bio-Rad 680) was used to obtain the light absorption for each well at a wavelength of 595 nm, the results were recorded. A cell growth curve was plotted with the concentration as abscissa and the cell survival percentage as ordinate. The two-point method (Reed and Muench method) was used to calculate the IC50 of the compound.

[2] = tested on: SMMC-7721 (human hepatoma cells); experiment: MTT inhibition of tumor cell growth, SMMC-7721; details: Homo sapiens
Protocol: as §1, §2, §3, §4

[3] = tested on: Wnt signaling pathway (Top-Flash reporter gene); experiment: Top-Flash Wnt reporter gene assay in HEK293T cells with Wnt3a conditioned medium; details: Homo sapiens, HEK-293T, 6 h, 6 h
Protocol: HEK293T cells were cultured in DMEM containing 10% fetal bovine serum (Invitrogen) at 37° C., 5% CO2. The cells were passaged every other day. The density was retained at 70˜80% during passage. L cell line (CRL-2647, purchased from the gene bank of ATCC, the US) and the control cell line (CRL-2648, purchased from ATCC, US), which stably secreted mouse Wnt3a protein, were cultured in DMEM containing 50 ug/ml G418 and 10% fetal bovine serum, at 37° C., 5% CO2. When the cells grew to a density of about 70%, the medium was replaced with DMEM containing 10% fetal bovine serum. After continuous culture for 4 days, the culture was collected and centrifuged, and the supernatant was kept so that the Wnt conditioned medium was obtained. After titration assay, the conditioned medium was quick-frozen in liquid nitrogen, and placed at −80° C. for long-term storage, so that the titer was kept unchanged.
The cells were seeded to a 48-well plate at a density of […] cells per well, and transfected 20 h later. The reagents for plasmid transfection were calculated based on the amount in each well of the 48-well plate as following: the total amount of plasmid was 125 ng/well; the plasmid was first added to a serum-free medium (25 μL/well) and mixed well; PLUS reagent (Invitrogen) was then added in an amount of 0.5 μL/well and mixed well, then stood for 15 min; Lipofectamine (Invitrogen) liposome was added in an amount of 0.5 μL/well to serum-free DMEM medium (25 μL/well), and then mixed with the solution containing the plasmid and the PLUS, and stood for 15 min. The cells were cultured in serum-free DMEM medium (100 μL/well), and the final mixture of plasmid, PLUS and Lipofectamine were added to the cells. After incubation for 3 h, the transfection was stopped by the medium containing 10% fetal bovine serum (200 μL/well).
The HEK293T cells used for activity assay of the report gene were transfected by the method as shown in 2). Activity assay of Wnt reporter gene: the amount of plasmid for transfection was 5 ng/well for TOP-flash and 5 ng/well for GFP plasmid as internal standard, with lacZ added to reach a total amount of 125 ng/well. […] After treating for 6 h, Boehringer Mannheim Luci-ferase Assay Kit was used to lyse cells (200 μL/well). 50 μL from each well was pipetted into a 96-well plate. The indensity of GFP protein in the cell lysate was measured by fluorimeter FL600 (BIO-TEK Inc. Winooski, Vt.), and taken as internal standard for cell transfection efficiency. 10 μL substrate of luciferase was then added to each well, and the activity of luciferase was measured by Micro Lumate Plus (Perkin Elmer Inc. Wellesley, Mass.) luminometer. Finally, GFP indensity was used as internal standard to calibrate the activity of luciferase, i.e. the activity of Wnt reporter gene.
Calculation of IC50 (taking the calculation of IC50 of the Wnt signaling pathway for example): background (the activity as measured in the groups treated with a conditioned medium containing DMSO only) was subtracted from the reporter gene activity as measured in the groups treated by Wnt3a conditioned medium with or without the compound to be tested at different concentrations; and the obtained value was defined as the activity of the reporter gene induced by Wnt or the residual activity of the reporter gene after adding the compound to be tested. The residual activity was normalized by the activity induced by Wnt to get the relative residual activity. Then combine with the concentrations of the compound to be tested to plot a linear graph, and a dose-effect curve was fitted based on 4-parameter logistic fit. IC50 of the Wnt signaling pathway is determined as the concentration at which the relative residual activity is 0.5.

[4] = tested on: A-549 (Human lung adenocarcinoma cells); experiment: MTT inhibition of tumor cell growth, A-549; details: Homo sapiens
Protocol: as §1, §2, §3, §4

[5] = tested on: SW-480 (human colon cancer cells); experiment: MTT inhibition of tumor cell growth, SW-480; details: Homo sapiens
Protocol: as §1, §2, §3, §4

[6] = tested on: HL-60 (human promyelocytic leukemia cells); experiment: MTT inhibition of tumor cell growth, HL-60; details: Homo sapiens
Protocol: as §1, §2, §3, §4

[7] = Table 8, HEK293T, Wnt3a conditioned medium, read-out: IC50 (μM), inhibitory activity on the Wnt signaling pathway
[8] = read-out: IC50 (μM), inhibitory activity on the Wnt signaling pathway
[9] = Table 9, HEK293T, Wnt3a conditioned medium, read-out: IC50(μM), inhibitory activity on the Wnt signaling pathway

## C=C1C(=O)C23CC[C@H]1CC2[C@@]12CCC[C@@](C)(COC1=O)C2C[C@H]3OC(=O)c1ccc(OC)cc1 (stereo partly shown) [Compound 1l]
[1]; MCF7, 48 h, Table 1, 7-hydroxy derivatives of S-3
  IC50: 3.07 µM
[2]; SMMC-7721, 48 h, Table 1, 7-hydroxy derivatives of S-3
  IC50: 3.6 µM
[3]; Table 7 (second), derivatives modified on 7-hydroxyl of S-3, HEK293T, Wnt3a conditioned medium, read-out: IC50 (μM), inhibitory activity on the Wnt signaling pathway
  IC50: 18.6 ± 1.48 µM
[4]; A549, 48 h, Table 1, 7-hydroxy derivatives of S-3
  IC50: 2.46 µM
[5]; SW480, 48 h, Table 1, 7-hydroxy derivatives of S-3, read-out: IC50 SW-480
  IC50: 2.43 µM
[6]; HL-60, 48 h, Table 1, 7-hydroxy derivatives of S-3
  IC50: 4.2 µM

## C=C1C(=O)C23CC[C@H]1CC2[C@@]12CCC[C@@](C)(COS(=O)OC1)C2C[C@H]3O (stereo partly shown) [Compound 41]
[1]; MCF7, 48 h, Table 3, single Michael reaction acceptor, modified lactonic ring
  IC50: 2.24 µM
[2]; SMMC-7721, 48 h, Table 3, single Michael reaction acceptor, modified lactonic ring
  IC50: 0.9 µM
[3]; [7]
  IC50: > 60 µM
[4]; A549, 48 h, Table 3, single Michael reaction acceptor, modified lactonic ring
  IC50: 2.18 µM
[5]; SW480, 48 h, Table 3, single Michael reaction acceptor, modified lactonic ring, read-out: IC50 SW-480
  IC50: 2.09 µM
[5]; SW480, 48 h, Table 6, 7-hydroxyl derivatives and controls, read-out: IC50 SW-480, 7-hydroxyl derivatives
  IC50: 2.09 µM
[6]; HL-60, 48 h, Table 3, single Michael reaction acceptor, modified lactonic ring
  IC50: 1.58 µM

## C=C1C(=O)C23CC[C@@H](CC2[C@@]24CCC[C@@](C)(COC2)C14)C(=C)[C@@H]3O (stereo partly shown) [Compound 33]
[3]; [8]
  IC50: 12.1 ± 1.25 µM

## C=C1C(=O)C23CC[C@H]1CC2[C@]1(COS(C)(=O)=O)CCC[C@@](C)(COS(C)(=O)=O)C1CC3=O (stereo partly shown) [Compound 73a]
[1]; MCF7, 48 h, Table 4, derivatives obtained by reduction of the lactonic ring
  IC50: 2.36 µM
[2]; SMMC-7721, 48 h, Table 4, derivatives obtained by reduction of the lactonic ring
  IC50: 0.77 µM
[3]; [7]
  IC50: 43 ± 5.35 µM
[4]; A549, 48 h, Table 4, derivatives obtained by reduction of the lactonic ring
  IC50: 2.89 µM
[5]; SW480, 48 h, Table 4, derivatives obtained by reduction of the lactonic ring, read-out: IC50 SW-480
  IC50: 2.57 µM
[5]; SW480, 48 h, Table 6, 7-carbonyl derivatives, read-out: IC50 SW-480, 7-carbonyl derivatives
  IC50: 2.57 µM
[6]; HL-60, 48 h, Table 4, derivatives obtained by reduction of the lactonic ring
  IC50: 3.97 µM

## C[C@]12CCC[C@@]3(C(=O)OC1)C1C[C@@H]4CCC1(C(=O)[C@@H]4CN1CCOCC1)[C@H](O)CC23 (stereo partly shown) [Compound 76]
[1]; MCF7, 48 h, Table 2, derivatives having potential Michael reaction acceptor
  IC50: 5.96 µM
[2]; SMMC-7721, 48 h, Table 2, derivatives having potential Michael reaction acceptor
  IC50: 13.1 µM
[3]; [9]
  IC50: > 60 µM
[4]; A549, 48 h, Table 2, derivatives having potential Michael reaction acceptor
  IC50: 4.04 µM
[5]; SW480, 48 h, Table 2, derivatives having potential Michael reaction acceptor, read-out: IC50 SW-480
  IC50: 7.69 µM
[6]; HL-60, 48 h, Table 2, derivatives having potential Michael reaction acceptor
  IC50: 5.28 µM

## C=C1C(=O)[C@]23CC[C@H]1CC2[C@@]12CCC[C@@](C)(CN(CCO)C1)C2C[C@H]3O (stereo partly shown) [Compound 88]
[1]; MCF7, Table 7 (first), alkaloid derivatives, 48 h
  IC50: 16.6 µM
[2]; SMMC-7721, Table 7 (first), alkaloid derivatives, 48 h
  IC50: 11.2 µM
[3]; [8]
  IC50: > 60 µM
[4]; A549, Table 7 (first), alkaloid derivatives, 48 h
  IC50: 9.92 µM
[5]; SW480, Table 7 (first), alkaloid derivatives, 48 h, read-out: IC50 SW-480
  IC50: 14.4 µM
[6]; HL-60, Table 7 (first), alkaloid derivatives, 48 h
  IC50: 7.95 µM

## C=C1C(=O)[C@@]23CC[C@@H](CC2[C@@]24CCC[C@@](C)(COC2)C14)C1(CO1)C3=O (stereo partly shown) [Compound 29]
[3]; [9]
  IC50: > 60 µM
